In US7935815B2, “Imidazoyl pyridine compounds and salts thereof” (Eisai R&D Management Co., Ltd., priority 2007, dated 2011):

system: Aβ42 production; assay: Quantification of Aβ peptide in culture of neurons from rat fetus brain (Aβ ELISA); format: cell-based; conditions: Rattus norvegicus, Neuron, 72 h, rat primary neuronal culture (embryonic day 18 Wistar rat cerebral cortex); cultured three days after addition of compound; Aβx-42 ELISA of the medium; read-out: Aβ42 production reducing effect IC50
Protocol: Quantification of Aβ Peptide in Culture of Neurons from Rat Fetus Brain
(1) Rat Primary Neuronal Culture
Primary neuronal cultures were prepared from the cerebral cortex of embryonic day 18 Wistar rats (Charles River Japan, Yokohama, Japan). Specifically, the embryos were aseptically removed from pregnant rats under ether anesthesia. The brain was isolated from the embryo and immersed in an ice-cold L-15 medium (Invitrogen Corp. Cat #11415-064, Carlsbad, Calif., USA, or SIGMA L1518, for example). The cerebral cortex was collected from the isolated brain under a stereoscopic microscope. The cerebral cortex fragments collected were enzymatically treated in an enzyme solution containing 0.25% trypsin (Invitrogen Corp. Cat #15050-065, Carlsbad, Calif., USA) and 0.01% DNase (Sigma D5025, St. Louis, Mo., USA) at 37° C. for 30 minutes to disperse the cells. Here, the enzymatic reaction was stopped by adding inactivated horse serum to the solution. The enzymatically treated solution was centrifuged at 1,500 rpm for five minutes to remove the supernatant. 5 to 10 ml of a medium was added to the resulting cell mass. Neurobasal medium (Invitrogen Corp. Cat #21103-049, Carlsbad, Calif., USA) supplemented with 2% B27 supplement (Invitrogen Corp. Cat #17504-044, Carlsbad, Calif., USA), 25 μM 2-mercaptoethanol (2-ME, WAKO Cat #139-06861, Osaka, Japan), 0.5 mM L-glutamine (Invitrogen Corp. Cat #25030-081, Carlsbad, Calif., USA), and Antibiotics-Antimycotics (Invitrogen Corp. Cat #15240-062, Carlsbad, Calif., USA) was used as the medium (Neurobasal/B27/2-ME). However, the above Neurobasal medium not supplemented with 2-ME (Neurobasal/B27) was used for the assay. The cells were redispersed by mild pipetting of the cell mass to which the medium was added. The cell dispersion was filtered through a 40-μm nylon mesh (Cell Strainer, Cat #35-2340, Becton Dickinson Labware, Franklin Lakes, N.J., USA) to remove the remaining cell mass, and thus a neuronal cell suspension was obtained. The neuronal cell suspension was diluted with the medium and then plated in a volume of 100 μl/well at an initial cell density of 5×10^5 cells/cm^2 in a 96-well polystyrene culture plate pre-coated with poly-L or D-lysine (Falcon Cat #35-3075, Becton Dickinson Labware, Franklin Lakes, N.J., USA coated with poly-L-lysine using the method shown below, or BIOCOAT™ cell environments Poly-D-lysine cell ware 96-well plate, Cat #35-6461, Becton Dickinson Labware, Franklin Lakes, N.J., USA). Poly-L-lysine coating was carried out as follows. 100 μg/ml of a poly-L-lysine (SIGMA P2636, St. Louis, Mo., USA) solution was aseptically prepared with a 0.15 M borate buffer (pH 8.5). 100 μl/well of the solution was added to the 96-well polystyrene culture plate and incubated at room temperature for one or more hours or at 4° C. overnight or longer. The coated 96-well polystyrene culture plate was washed with sterile water four or more times, and then dried or rinsed with, for example, sterile PBS or medium, and used for cell plating. The plated cells were cultured in the culture plate at 37° C. in 5% CO2-95% air for one day. Then, the total amount of the medium was replaced with a fresh Neurobasal™/B27/2-ME medium, and then the cells were cultured for further three days.
The drug was added to the culture plate on Day 4 of culture as follows. The total amount of the medium was removed from the wells, and 180 μl/well of Neurobasal medium not containing 2-ME and containing 2% B-27 (Neurobasal/B27) was added thereto. A solution of the test compound in dimethyl sulfoxide (hereinafter abbreviated as DMSO) was diluted with Neurobasal/B27 at 10-fold of the final concentration. 20 μl/well of the dilution was added to and sufficiently mixed with the medium. The final DMSO concentration was 1% or less. Only DMSO was added to the control group.
The cells were cultured for three days after addition of the compound, and the total amount of the medium was collected. […]

Structure (SMILES) | IC50
COc1nc(/C=C/c2nc3n(n2)CCOC3c2ccc(Cl)cc2)ccc1-n1cnc(C)c1 (single isomer, unassigned) [Example 262, (−)-8-(4-chlorophenyl)-2-{(E)-2-[6-methoxy-5-(4-methyl-1H-imidazol-1-yl)pyridin-2-yl]vinyl}-5,6-dihydro-8H-[1,2,4]triazolo[5,1-c][1,4]oxazine] | 74 nM
COc1nc(/C=C/c2nc3n(n2)CCCC3c2cccc(F)c2C)ccc1-n1cnc(C)c1 (single isomer, unassigned; (-)) [Example 333, (−)-8-(3-fluoro-2-methylphenyl)-2-{(E)-2-[6-methoxy-5-(4-methyl-1H-imidazol-1-yl)pyridin-2-yl]vinyl}-5,6,7,8-tetrahydro-[1,2,4]triazolo[1,5-a]pyridine] | 10 nM
COc1cc(/C=C/c2nc3n(n2)CCC[C@@H]3[C@H]2CCCN2Cc2ccccc2)ccc1-n1cnc(C)c1 (single isomer, unassigned) [Example 133, (−)-8-(1-benzylpyrrolidin-2-yl)-2-{(E)-2-[3-methoxy-4-(4-methyl-1H-imidazol-1-yl)phenyl]vinyl}-5,6,7,8-tetrahydro[1,2,4]triazolo[1,5-a]pyridine] | 65 nM
COc1nc(/C=C/c2nc3n(n2)C(C)CCC3c2ccccc2C(F)(F)F)ccc1-n1cnc(C)c1 (stereo not shown) [Example 361, 2-{(E)-2-[6-methoxy-5-(4-methyl-1H-imidazol-1-yl)pyridin-2-yl]vinyl}-5-methyl-8-(2-trifluoromethylphenyl)-5,6,7,8-tetrahydro-[1,2,4]triazolo[1,5-a]pyridine] | 12 nM
COc1cc(/C=C/c2nc3n(n2)CCC[C@@]3(C#N)c2cc(F)c(F)c(F)c2)cnc1-n1cnc(C)c1 (single isomer, unassigned) [Example 229, (−)-2-{(E)-2-[5-methoxy-6-(4-methyl-1H-imidazol-1-yl)pyridin-3-yl]vinyl}-8-(3,4,5-trifluorophenyl)-5,6,7,8-tetrahydro-[1,2,4]triazolo[1,5-a]pyridine-8-carbonitrile] | 169 nM
COc1nc(/C=C/c2nc3n(n2)CCCN3c2ccc(Cl)cc2)ccc1-n1cnc(C)c1 [Example 232, 4-(4-chlorophenyl)-2-{(E)-2-[6-methoxy-5-(4-methyl-1H-imidazol-1-yl)pyridin-2-yl]vinyl}-4,5,6,7-tetrahydro-[1,2,4]triazolo[1,5-a]pyrimidine] | 33 nM
CCCCC(O)c1ccc([C@H]2CCCn3nc(/C=C/c4ccc(-n5cnc(C)c5)c(OC)c4)nc32)cc1 (single isomer, unassigned) [Example 19, 1-{4-{2-{(E)-2-[3-methoxy-4-(4-methyl-1H-imidazol-1-yl)phenyl]vinyl}-5,6,7,8-tetrahydro[1,2,4]triazolo[1,5-a]pyridin-8-yl}phenyl}pentan-1-ol] | 43 nM
COc1nc(/C=C/c2nc3n(n2)CCC3c2ccccc2)ccc1-n1cnc(C)c1 (stereo not shown) [Example 376, 2-{(E)-2-[6-methoxy-5-(4-methyl-1H-imidazol-1-yl)pyridin-2-yl]vinyl}-7-phenyl-6,7-dihydro-5H-pyrrolo[1,2-b][1,2,4]triazole] | 28 nM
COc1nc(/C=C/c2nc3n(n2)CC[C@H](C)N3c2ccc(F)cc2)ccc1-n1cnc(C)c1 [Example 236, (S)-4-(4-fluorophenyl)-2-{(E)-2-[6-methoxy-5-(4-methyl-1H-imidazol-1-yl)pyridin-2-yl]vinyl}-5-methyl-4,5,6,7-tetrahydro-[1,2,4]triazolo[1,5-a]pyrimidine] | 39 nM
COc1nc(/C=C/c2nc3n(n2)CCC[C@H]3c2cccc3ccccc23)ccc1-n1cnc(C)c1 (single isomer, unassigned) [Example 199, (+)-2-{(E)-2-[6-methoxy-5-(4-methyl-1H-imidazol-1-yl)pyridin-2-yl]vinyl}-8-(naphthalen-1-yl)-5,6,7,8-tetrahydro-[1,2,4]triazolo[1,5-a]pyridine] | 23 nM
COc1nc(/C=C/c2nc3n(n2)CCC[C@@H]3c2cc(F)c(F)cc2F)ccc1-n1cnc(C)c1 (single isomer, unassigned) [Example 179, (−)-8-(2,4,5-trifluorophenyl)-2-{(E)-2-[6-methoxy-5-(4-methyl-1H-imidazol-1-yl)pyridin-2-yl]vinyl}-5,6,7,8-tetrahydro[1,2,4]triazolo[1,5-a]pyridine] | 22 nM
COc1nc(/C=C/c2nc3n(n2)CCCC3c2ccc(F)cc2C(F)(F)F)ccc1-n1cnc(C)c1 (single isomer, unassigned; (-)) [Example 286, (−)-8-(2-trifluoromethyl-4-fluorophenyl)-2-{(E)-2-[6-methoxy-5-(4-methyl-1H-imidazol-1-yl)pyridin-2-yl]vinyl}-5,6,7,8-tetrahydro-[1,2,4]triazolo[1,5-a]pyridine] | 8 nM
COc1cc(/C=C/c2nc3n(n2)C[C@H](C)C[C@@H]3c2ccc(F)cc2)ccc1-n1cnc(C)c1 [Example 97, (6R,8R)-8-(4-fluorophenyl)-2-{(E)-2-[3-methoxy-4-(4-methyl-1H-imidazol-1-yl)phenyl]vinyl}-6-methyl-5,6,7,8-tetrahydro-[1,2,4]triazolo[1,5-a]pyridine] | 38 nM
COc1nc(/C=C/c2nc3n(n2)CCCC3c2ccc(F)cc2)ccc1-n1cnc(C)c1 (single isomer, unassigned) [Example 173, (−)-8-(4-fluorophenyl)-2-{(E)-2-[6-methoxy-5-(4-methyl-1H-imidazol-1-yl)pyridin-2-yl]vinyl}-5,6,7,8-tetrahydro-[1,2,4]triazolo[1,5-a]pyridine] | 37 nM
COc1cc(/C=C/c2nc3n(n2)CCC3c2ccccc2)ccc1-n1cnc(C)c1 (single isomer, unassigned) [Example 141, (−)-2-{(E)-2-[3-methoxy-4-(4-methyl-1H-imidazol-1-yl)phenyl]vinyl}-7-phenyl-6,7-dihydro-5H-pyrrolo[1,2-b][1,2,4]triazole] | 36 nM
COc1nc(/C=C/c2nc3n(n2)CCOC3c2ccccc2C(F)(F)F)ccc1-n1cnc(C)c1 (stereo not shown) [Example 368, 2-{(E)-2-[6-methoxy-5-(4-methyl-1H-imidazol-1-yl)pyridin-2-yl]vinyl}-8-(2-trifluoromethylphenyl)-5,6-dihydro-8H-[1,2,4]triazolo[5,1-c][1,4]oxazine] | 25 nM
COc1cc(/C=C/c2nc3n(n2)CC[C@@H](C)[C@@H]3c2ccc(F)cc2)ccc1-n1cnc(C)c1 [Example 102, (7R,8R)-8-(4-fluorophenyl)-2-{(E)-2-[3-methoxy-4-(4-methyl-1H-imidazol-1-yl)phenyl]vinyl}-7-methyl-5,6,7,8-tetrahydro-[1,2,4]triazolo[1,5-a]pyridine] | 20 nM
COCc1cc(F)ccc1C1CCCn2nc(/C=C/c3ccc(-n4cnc(C)c4)c(OC)c3)nc21 (single isomer, unassigned; (-)) [Example 24, (−)-8-(4-fluoro-2-methoxymethylphenyl)-2-{(E)-2-[3-methoxy-4-(4-methyl-1H-imidazol-1-yl)phenyl]vinyl}-5,6,7,8-tetrahydro-[1,2,4]triazolo[1,5-a]pyridine] | 12 nM
COc1cc(/C=C/c2nc3n(n2)C[C@@H](O)C[C@@H]3c2cc(F)c(F)c(F)c2)ccc1-n1cnc(C)c1 [Example 108, (6S,8R)-2-{(E)-2-[3-methoxy-4-(4-methyl-1H-imidazol-1-yl)phenyl]vinyl}-8-(3,4,5-trifluorophenyl)-5,6,7,8-tetrahydro-[1,2,4]triazolo[1,5-a]pyridin-6-ol] | 29 nM
